In ChEMBL document CHEMBL1201862, “PubChem BioAssay data set” (2004):
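Following 48 hours of exposure in 96-well plates, responses at five concentrations were used to interpolate endpoints linearly. At the GI50, growth is halved.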 Active and inactive are the calls of the source. No stated cut-off is given here; in the data, active = GI50 up to about 1.1 µM and inactive = higher.

Columns and labels:
Assay in all cases: NCI anticancer screen, dose series, 48 h
786-0 = tested on: 786-0
A549 = tested on: A549
ACHN = tested on: ACHN
BT-549 = tested on: BT-549
CAKI-1 = tested on: CAKI-1
CCRF-CEM = tested on: CCRF-CEM
COLO 205 = tested on: COLO 205
DU-145 = tested on: DU-145
EKVX = tested on: EKVX
HCC 2998 = tested on: HCC 2998
HCT-116 = tested on: HCT-116
HCT-15 = tested on: HCT-15
HL-60 = tested on: HL-60
HOP-62 = tested on: HOP-62
HOP-92 = tested on: HOP-92
HT-29 = tested on: HT-29
Hs-578T = tested on: Hs-578T
IGROV-1 = tested on: IGROV-1
K562 = tested on: K562
KM12 = tested on: KM12
LOX IMVI = tested on: LOX IMVI
M14 = tested on: M14
MCF7 = tested on: MCF7
MDA-MB-231 = tested on: MDA-MB-231
MDA-MB-435 = tested on: MDA-MB-435
MDA-N = tested on: MDA-N
MOLT-4 = tested on: MOLT-4
NCI-H23 = tested on: NCI-H23
NCI-H460 = tested on: NCI-H460
NCI-H522 = tested on: NCI-H522
NCI/ADR-RES = tested on: NCI/ADR-RES
OVCAR-3 = tested on: OVCAR-3
OVCAR-4 = tested on: OVCAR-4
OVCAR-5 = tested on: OVCAR-5
OVCAR-8 = tested on: OVCAR-8
PC-3 = tested on: PC-3
RPMI-8226 = tested on: RPMI-8226
SF-268 = tested on: SF-268
SF-295 = tested on: SF-295
SF-539 = tested on: SF-539
SK-MEL-28 = tested on: SK-MEL-28
SK-MEL-2 = tested on: SK-MEL-2
SK-MEL-5 = tested on: SK-MEL-5
SN12C = tested on: SN12C
SNB-19 = tested on: SNB-19
SNB-75 = tested on: SNB-75
SR = tested on: SR
SW-620 = tested on: SW-620
T47D = tested on: T47D
TK-10 = tested on: TK-10
U-251 = tested on: U-251
UACC-257 = tested on: UACC-257
UACC-62 = tested on: UACC-62
UO-31 = tested on: UO-31

In the case of `c1cc(CSP234N5CCN2CCN3CCN4CC5)cc(CSP234N5CCN2CCN3CCN4CC5)c1`, the GI50 (786-0) is reported as > 100 µM (inactive), the GI50 (A549) is reported as 40.1 µM (inactive) and the GI50 (ACHN) is reported as 33 µM (inactive). For the same compound, the GI50 (BT-549) was 19.2 µM (inactive), the GI50 (CAKI-1) was > 100 µM (inactive) and the GI50 (CCRF-CEM) was 16.5 µM (inactive). The GI50 (COLO 205) was 23 µM (inactive), the GI50 (DU-145) was > 100 µM (inactive) and the GI50 (EKVX) was 63.2 µM (inactive). For the same compound, the GI50 (HCC 2998) was 19.3 µM (inactive), the GI50 (HCT-116) was > 100 µM (inactive) and the GI50 (HCT-15) was 22.3 µM. For the same compound, the GI50 (HL-60) was 3.56 µM (inactive), the GI50 (HOP-62) was 28.6 µM (inactive) and the GI50 (HOP-92) was 21.5 µM (inactive). The GI50 (HT-29) was 19.1 µM (inactive), the GI50 (Hs-578T) was 21.9 µM (inactive) and the GI50 (IGROV-1) was 21.5 µM (inactive). For the same compound, the GI50 (K562) was < 0.01 µM (active), the GI50 (KM12) was 19.5 µM (inactive) and the GI50 (LOX IMVI) was 16.1 µM (inactive). For the same compound, the GI50 (M14) was 18.6 µM (inactive), the GI50 (MCF7) was 25.8 µM (inactive) and the GI50 (MDA-MB-231) was 14.8 µM (inactive). The GI50 (MDA-MB-435) was 22.6 µM (inactive), the GI50 (MDA-N) was 28.1 µM (inactive) and the GI50 (MOLT-4) was 15.7 µM (inactive). The GI50 (NCI-H23) was 41.2 µM (inactive), the GI50 (NCI-H460) was 26.6 µM (inactive) and the GI50 (NCI-H522) was 16.9 µM (inactive). The GI50 (NCI/ADR-RES) was 57.4 µM (inactive), the GI50 (OVCAR-3) was 32.3 µM (inactive) and the GI50 (OVCAR-4) was 32.9 µM (inactive). The GI50 (OVCAR-5) was 86.7 µM (inactive), the GI50 (OVCAR-8) was 18.6 µM (inactive) and the GI50 (PC-3) was 25.3 µM (inactive). The GI50 (RPMI-8226) was 14.5 µM (inactive), the GI50 (SF-268) was 29.4 µM (inactive) and the GI50 (SF-295) was 14.2 µM (inactive). For the same compound, the GI50 (SF-539) was 22.9 µM (inactive), the GI50 (SK-MEL-28) was 18.8 µM (inactive) and the GI50 (SK-MEL-2) was 19.2 µM (inactive). For the same compound, the GI50 (SK-MEL-5) was 16.3 µM (inactive), the GI50 (SN12C) was 58.6 µM (inactive) and the GI50 (SNB-19) was 27.9 µM (inactive). For the same compound, the GI50 (SNB-75) was 20.1 µM (inactive), the GI50 (SR) was 4.91 µM (inactive) and the GI50 (SW-620) was 28.8 µM (inactive). For the same compound, the GI50 (T47D) was > 100 µM (inactive), the GI50 (TK-10) was 26.3 µM (inactive) and the GI50 (U-251) was 21.9 µM (inactive). For the same compound, the GI50 (UACC-257) was 17 µM (inactive), the GI50 (UACC-62) was 16.8 µM (inactive) and the GI50 (UO-31) was 13.9 µM (inactive).
